Values quoted from earlier work in patent publication US20050089572A1, “Controlled release drug delivery system of pravastatin” (priority 2002, published 2005).

Settings: pH 3 or less as found in the stomach; degrades to lactone and 3-α-hydroxy-isopravastatin

- stability at low pH: very unstable
Compound: CC[C@H](C)C(=O)O[C@H]1C[C@H](O)C=C2C=C[C@H](C)[C@H](CC[C@@H](O)C[C@@H](O)CC(=O)O)[C@H]21 [Pravastatin sodium, (+)-(3R, 5R)-3,5-dihydroxy-7-[(1S,2S,6S,8S,8aR)-6-hydroxy-2-methyl-8-[(S)-2-methylbutyryloxy]-1,2,6,7,8,8a-hexahydro-1-naphthyl] heptanoate]
